Data: patent US8957074B2 (Novartis AG, priority 2010, dated 2015)
Like-named read-outs stand apart in the source and are kept apart here.

Tests used:
[1] = target: CDK4/cyclin D1 (Homo sapiens (Human), UniProt P11802); assay: CDK4/cyclin D1 enzymatic activity assay (TR-FRET, phosphorylation of pRb at Ser780); type: biochemical; settings: 0.3 nM CDK4/cyclin D1, 150 nM biotin-pRb (773-924), 3 μM ATP, 60 min at 22° C.; read-out: Biochemical CDK4 enzyme IC50
How it was run: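 Phosphorylation at pRb Ser780, detected by TR-FRET, gave IC50s and kinetics. Enzyme: baculovirus/Sf21-expressed human CDK4/cyclin D1. ATP at 3 μM initiated the reaction; EDTA (pH 8.0) stopped it after 60 min at 22° C.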

[2] = tested on: phosphorylation of pRb at the Ser780 site in JeKo-1 mantle cell lymphoma cells; assay: CDK4 cellular assay: ELISA of pRb phosphorylation at Ser780 in JeKo-1 cells; type: cell-based
[3] = target: CDK1/cyclin B (Homo sapiens (Human), UniProt P06493); assay: CDK1/cyclin B enzymatic activity assay (IMAP-FP); type: biochemical
Chain of CDK1/cyclin B (P06493 whole entry, species assumed): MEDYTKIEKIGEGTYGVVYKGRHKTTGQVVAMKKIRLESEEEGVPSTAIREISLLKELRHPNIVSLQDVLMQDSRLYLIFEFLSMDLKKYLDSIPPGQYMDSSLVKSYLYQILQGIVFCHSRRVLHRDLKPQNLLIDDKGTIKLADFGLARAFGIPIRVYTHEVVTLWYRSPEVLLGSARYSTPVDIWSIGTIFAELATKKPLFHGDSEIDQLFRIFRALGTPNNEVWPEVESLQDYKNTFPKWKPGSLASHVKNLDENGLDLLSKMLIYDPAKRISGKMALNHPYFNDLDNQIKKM
Chain of CDK1/cyclin B (P14635 whole entry partner, species assumed): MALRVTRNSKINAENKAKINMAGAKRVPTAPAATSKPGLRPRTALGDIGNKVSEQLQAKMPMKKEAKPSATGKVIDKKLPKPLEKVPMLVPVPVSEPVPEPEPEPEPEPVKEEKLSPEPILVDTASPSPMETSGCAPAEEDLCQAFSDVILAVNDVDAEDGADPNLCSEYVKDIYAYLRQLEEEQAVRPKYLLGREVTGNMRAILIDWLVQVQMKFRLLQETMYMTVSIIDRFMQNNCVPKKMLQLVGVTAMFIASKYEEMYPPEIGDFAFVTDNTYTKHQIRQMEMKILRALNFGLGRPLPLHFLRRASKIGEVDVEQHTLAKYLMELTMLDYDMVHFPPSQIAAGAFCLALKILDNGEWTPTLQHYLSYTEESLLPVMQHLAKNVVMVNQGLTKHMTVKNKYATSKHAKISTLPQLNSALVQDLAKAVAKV
Description: CDK1/Cyclin B Enzymatic Activity Assay
A 384-well microtiter IMAP-FP™ (Molecular Devices Trade Mark Technology) endpoint assay was used for CDK1/cyclin B kinase activity measurements. The same assay was used for IC50 determination of small molecule inhibitors.

[4] = JeKo-1 cells, p-pRb % inhibition adjusted with total pRb levels, read-out: Normalized cellular ppRb inhibition IC50
[5] = JeKo-1 cells, p-pRb Ser780 ELISA, non-normalized, read-out: Cellular ppRb inhibition IC50
[6] = […] CDK1/cyclin B, 100 nM Tamra Histone-H1 peptide, 20 μM ATP, 120 min at room temperature, read-out: Biochemical CDK1 enzyme IC50
[7] = Homo sapiens, JeKo-1 cells, p-pRb % inhibition adjusted with total pRb levels, read-out: Normalized cellular ppRb inhibition IC50
[8] = Homo sapiens, JeKo-1 cells, p-pRb Ser780 ELISA, non-normalized, read-out: Cellular ppRb inhibition IC50
[9] = Homo sapiens, JeKo-1, JeKo-1 cells, p-pRb % inhibition adjusted with total pRb levels, read-out: Normalized cellular ppRb inhibition IC50
[10] = Homo sapiens, JeKo-1, JeKo-1 cells, p-pRb Ser780 ELISA, non-normalized, read-out: Cellular ppRb inhibition IC50

Chain of CDK4/cyclin D1 (P11802 whole entry): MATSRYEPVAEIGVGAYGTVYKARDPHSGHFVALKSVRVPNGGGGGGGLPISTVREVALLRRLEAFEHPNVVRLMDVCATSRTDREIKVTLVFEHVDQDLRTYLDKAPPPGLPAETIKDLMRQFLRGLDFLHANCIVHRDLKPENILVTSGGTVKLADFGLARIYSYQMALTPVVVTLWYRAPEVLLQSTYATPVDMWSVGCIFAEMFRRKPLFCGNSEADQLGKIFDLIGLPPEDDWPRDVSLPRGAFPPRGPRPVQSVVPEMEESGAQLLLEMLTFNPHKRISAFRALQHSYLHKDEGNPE
Chain of CDK4/cyclin D1 (P24385 whole entry partner): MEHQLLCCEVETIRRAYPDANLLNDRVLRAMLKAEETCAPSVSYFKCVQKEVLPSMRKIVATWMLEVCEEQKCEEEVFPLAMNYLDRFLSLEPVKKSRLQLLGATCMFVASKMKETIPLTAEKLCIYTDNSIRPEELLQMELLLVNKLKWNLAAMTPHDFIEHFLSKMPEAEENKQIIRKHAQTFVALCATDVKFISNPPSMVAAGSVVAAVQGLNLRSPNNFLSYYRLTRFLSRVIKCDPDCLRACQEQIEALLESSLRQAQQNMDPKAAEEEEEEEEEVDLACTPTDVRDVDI

Row | IC50 [3, 6] [nM] | SMILES | IC50 [1] [nM] | IC50 [2, 4] [nM] | IC50 [2, 5] [nM] | IC50 [2, 7] [nM] | IC50 [2, 8] [nM] | IC50 [2, 9] [nM] | IC50 [2, 10] [nM] | IC50 [3] [nM]
1 | > 15000 | CN(C)C(=O)c1cc2cnc(Nc3ccc(C(=O)N4[C@@H]5CC[C@H]4C[C@H](O)C5)cn3)nc2n1C1CCCC1 [Example 43, 7-Cyclopentyl-2-[5-((1S,3S,5R)-3-hydroxy-8-aza-bicyclo[3.2.1]octane-8-carbonyl)-pyridin-2-ylamino]-7H-pyrrolo[2,3-d]pyrimidine-6-carboxylic acid dimethylamide] | 176 to 198 | 469 to 1280 | 461 to 745 |  |  |  |  | 
2 | > 15000 | CN(C)C(=O)c1cc2cnc(Nc3ccc(C(=O)N4CC5CC(C4)N(CC(F)(F)F)C5)cn3)nc2n1C1CCCC1 (centres unmarked) [Example 12, 7-Cyclopentyl-2-{5-[6-(2,2,2-trifluoro-ethyl)-3,6-diaza-bicyclo[3.2.1]octane-3-carbonyl]-pyridin-2-ylamino}-7H-pyrrolo[2,3-d]pyrimidine-6-carboxylic acid dimethylamide] | 49 |  |  | 724 | 255 |  |  | 
3 | > 15000 | CN(C)C(=O)c1cc2cnc(Nc3ccc(N4CCN5CCCCC5C4=O)cn3)nc2n1C1CCCCC1 (centres unmarked) [Example 100, 7-Cyclohexyl-2-[5-(1-oxo-octahydro-pyrido[1,2-a]pyrazin-2-yl)-pyridin-2-ylamino]-7H-pyrrolo[2,3-d]pyrimidine-6-carboxylic acid dimethylamide] | 35 |  |  | 218 | 188 |  |  | 

The next lines start with the compound.

Row | SMILES | IC50 [3, 6] [nM] | IC50 [1] [nM] | IC50 [2, 4] [nM] | IC50 [2, 5] [nM] | IC50 [2, 7] [nM] | IC50 [2, 8] [nM] | IC50 [2, 9] [nM] | IC50 [2, 10] [nM] | IC50 [3] [nM]
4 | CC(=O)N1C2CCC1CN(C(=O)c1ccc(Nc3ncc4cc(C(=O)N(C)C)n(C5CCCCCC5)c4n3)nc1)C2 [Example 8, 2-(5-(8-acetyl-3,8-diazabicyclo[3.2.1]octane-3-carbonyl)pyridin-2-ylamino)-7-cycloheptyl-N,N-dimethyl-7H-pyrrolo[2,3-d]pyrimidine-6-carboxamide] | > 15000 | 39 |  |  | 259 | 72 |  |  | 
5 | CN(C)C(=O)c1cc2cnc(Nc3ccc(N4CC5(CC6CCC(C5)N6)OC4=O)cn3)nc2n1C1CCCCC1 [Example 94, 7-cyclohexyl-N,N-dimethyl-2-(5-((1R,3r,5S)-2′-oxo-8-azaspiro[bicyclo[3.2.1]octane-3,5′-oxazolidine]-3′-yl)pyridin-2-ylamino)-7H-pyrrolo[2,3-d]pyrimidine-6-carboxamide] | > 15000 | 41 to 44 |  |  |  |  | 34 to 206 | 25 to 154 | 
6 | CN(C)C(=O)c1cc2cnc(Nc3ccc(C(=O)N4C[C@@H]5C[C@H]4C[C@H]5O)cn3)nc2n1C1CCCC1 [Example 31, 7-cyclopentyl-2-(5-((1S,4S,5R)-5-hydroxy-2-azabicyclo[2.2.1]heptane-2-carbonyl)pyridin-2-ylamino)-N,N-dimethyl-7H-pyrrolo[2,3-d]pyrimidine-6-carboxamide] | > 15000 | 69 to 81 |  |  | 497 to 591 | 252 to 352 |  |  | 
7 | CN(C)C(=O)c1cc2cnc(Nc3ccc(N4C[C@@H]5CC[C@H](CC4=O)N5)cn3)nc2n1C1CCCC1 [Example 124, 7-Cyclopentyl-2-[5-((1S,6R)-4-oxo-3,9-diaza-bicyclo[4.2.1]non-3-yl)-pyridin-2-ylamino]-7H-pyrrolo[2,3-d]pyrimidine-6-carboxylic acid dimethylamide] | > 15000 | 23 | 261 | 158 |  |  |  |  | 
8 | CN(C)C(=O)c1cc2cnc(Nc3ccc(C(=O)N4CC5CC[C@@H](C4)N5)cn3)nc2n1[C@H]1C[C@@H]2CC[C@H]1C2 [Example 77, 7-(1S,2S,4R)-Bicyclo[2.2.1]hept-2-yl-2-[5-(3,8-diaza-bicyclo[3.2.1]octane-3-carbonyl)-pyridin-2-ylamino]-7H-pyrrolo[2,3-d]pyrimidine-6-carboxylic acid dimethylamide] |  | 27 |  |  |  |  | 225 | 172 | > 15000
